Data on three molecules can be found in patent US9505783B2, “Method of producing pyrone and pyridone derivatives” (priority 2009, dated 2016).

The target of test [1] is cap-dependent endonuclease (RNP fraction containing PB1•PB2•PA complex) (Influenza A virus, UniProt P15659). Nature of the test: Measurement of cap-dependent endonuclease (CEN) inhibitory activity. It is filed as biochemical. Particulars: RNP enzyme from A/WSN/33 virus, capped Cy3/BHQ2-labelled 30mer RNA substrate, room temperature 60 minutes.
Test [2] deals with influenza virus. Nature of the test: CPE inhibitory effect confirming assay. Format: cell-based. Particulars: unidentified influenza virus, 72 h, read-out: CPE IC50.

As to `CN1C(=O)c2c(O)c(=O)c(C(=O)O)cn2C[C@H]1C(c1ccccc1)c1ccccc1` [Compound 43], the half-inhibitory concentration (IC50) in test [1] was found to be 78 nM; in test [2], 1410 nM.

Consider `CCOC(=O)CCN1CN(C(c2ccccc2)c2ccccc2)n2ccc(=O)c(O)c2C1=O` [Compound 128], for which the 50% inhibitory concentration (IC50) in test [1] is 63 nM; in test [2] it was 416 nM.

With `O=C(O)c1cn2c(c(O)c1=O)C(=O)N1CCCO[C@H]1[C@@H]2C(c1ccccc1)c1ccccc1` [Compound 175], the results for the 50% inhibitory concentration (IC50) in test [1] and in test [2] were 132 nM and 102 nM, respectively.
